Assay results published in patent US20250154154A1 (Relay Binney Street, 2nd Floor, priority 2020, published 2025).

Tests used:
SRC = SRC (Homo sapiens, UniProt P12931); experiment: SRC Biochemical Assay Protocol (microfluidic mobility shift assay, FLPeptide4 substrate)
Summary of the method: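 Recombinant SRC (0.26 nM) preincubated 30 min at RT with compound (0.0017–100 μM) and 1.5 μM FLPeptide4, then 50 μM ATP added; 90 min reaction in HEPES pH 7.4, 10 mM MgCl2, 1% DMSO, EDTA-quenched. Phosphopeptide quantified by microfluidic mobility shift; IC50 from 4-parameter logistic fit.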

[1] = tested on: phospho-S6RP (Ser 235/236) in RBE cells; experiment: Cellular Proliferation Protocol (cellular phospho-S6RP HTRF), RBE cells; type: cell-based; conditions: 6 hours treatment, RBE or SNU-1079 cells, cell line not given
Summary of the method: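 RBE cells, 2000/well, seeded 24 h before 6 h compound treatment at 37° C. Lysates were probed with a Eu-cryptate/d2 HTRF antibody sandwich for phospho-S6RP (Ser 235/236), incubated overnight at room temperature. Signal normalised to DMSO control and IC50 fitted to a 4-parameter curve.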

RBE cells = experiment: Cell Viability Protocol (CellTiterGlo), RBE cells; type: cell-based; conditions: RBE or SNU-1079 cells, 72 or 120 hour, cell line and time not given
Summary of the method: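 RBE cells plated at 1200/well in RPMI 1640 with 10% FBS, incubated 24 h, then dosed with compound from DMSO stocks and incubated 72 or 120 h at 37° C. CellTiterGlo luminescence normalised to DMSO control; IC50 from 4-parameter fit.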

| Molecule | IC50 (SRC) [nM] | IC50 ([1]; 6 h) [nM] | IC50 (RBE cells) [nM] | IC50 [1] [nM] |
| --- | --- | --- | --- | --- |
| C=CC(=O)N1CCC(N2CC(C#Cc3c(-c4ccc(Br)c(OC)c4)c4c(N)ncnc4n3C(C)C)C2)CC1 [II-161, 1-(4-(3-((4-amino-5-(4-bromo-3-methoxyphenyl)-7-isopropyl-7H-pyrrolo[2,3-d]pyrimidin-6-yl)ethynyl)azetidin-1-yl)piperidin-1-yl)prop-2-en-1-one] | ≤ 10 | 10 to 1000 | 10 to 1000 |  |
| C=CC(=O)N1CCC(N2CC(C#Cc3c(-c4ccc(Oc5ccccc5)cc4)c4c(N)ncnc4n3C)C2)C1 (stereo not drawn) [II-195, 1-(3-(3-((4-amino-7-methyl-5-(4-phenoxyphenyl)-7H-pyrrolo[2,3-d]pyrimidin-6-yl)ethynyl)azetidin-1-yl)pyrrolidin-1-yl)prop-2-en-1-one] | 10 to 1000 | 10 to 1000 | 10 to 1000 |  |
| C=CS(=O)(=O)N1CC[C@@H](N2CC(C#Cc3c(-c4ccc(Oc5ccccc5)c(OC)n4)c4c(N)ncnc4n3C)C2)[C@@H](O)C1 [II-323] | ≤ 10 |  | ≤ 10 | 10 to 1000 |
| 1-((1R,5S,6s)-6- ((4-amino-5-(2- methoxy-4-((6- methylpyridin-2- yl)oxy)phenyl)-7- (2-methoxyethyl)- 7H-pyrrolo[2,3- d]pyrimidin-6- yl)ethynyl)-3- azabicyclo[3.1.0] hexan-3-yl)prop-2- en-1-one [II-275] | 10 to 1000 |  | 10 to 1000 | 10 to 1000 |
| C=CC(=O)NCC(=O)N1CCC(C#Cc2c(-c3ccc(Oc4ccccc4)cc3)c3c(N)ncnc3n2C(C)C)CC1 [Example I-49] | ≤ 10 | ≤ 10 | ≤ 10 |  |
| C=CC(=O)N1CC[C@H](N2CC(C#Cc3c(-c4ccc(Cl)c(C)c4)c4c(N)ncnc4n3CC)C2)[C@H](O)C1 [II-113] | ≤ 10 |  | 10 to 1000 | 10 to 1000 |
| C=CC(=O)N1CCC(N2CC(C#Cc3c(-c4cccc(Cl)c4OC)c4c(N)ncnc4n3C)C2)CC1 [II-264] | 1000 to 10000 | 1000 to 10000 | 1000 to 10000 |  |
| C=CC(=O)N1CC[C@@H](N2CC(C#Cc3c(-c4ccc(Oc5cccc(C)n5)cc4)c4c(N)ncnc4n3C)C2)[C@@H](F)C1 [II-201, 1-((3S,4R)-4-(3-((4-amino-7-methyl-5-(4-(6-methylpyridin-2-yloxy)phenyl)-7H-pyrrolo[2,3-d]pyrimidin-6-yl)ethynyl)azetidin-1-yl)-3-fluoropiperidin-1-yl)prop-2-en-1-one] | 10 to 1000 | 10 to 1000 | 10 to 1000 |  |
| CN(C)CC=CC(=O)N1CC2C(C#Cc3c(-c4cccc5c4OCO5)c4c(N)ncnc4n3C)C2C1 (stereo not drawn) [II-115] | ≤ 10 |  | 10 to 1000 | 10 to 1000 |
| C=CC(=O)N1CCC(O)(C#Cc2c(-c3ccc(Oc4ccccc4)cc3)c3c(N)ncnc3n2C(C)C)CC1 [Example I-25] | ≤ 10 | ≤ 10 | ≤ 10 |  |
| C=CC(=O)N1CCC(N2CC(C#Cc3c(-c4ccc(C(F)(F)F)cc4)c4c(N)ncnc4n3C)C2)CC1 [II-102] | 10 to 1000 |  | 10 to 1000 | 10 to 1000 |
| COc1cc(Oc2ccccc2F)ccc1-c1c(C#C[C@@H]2[C@H]3CN(C(=O)/C=C/CN(C)C)C[C@@H]23)n(C)c2ncnc(N)c12 [II-228, (E)-1-((1R,5S,6s)-6-((4-amino-5-(4-(2-fluorophenoxy)-2-methoxyphenyl)-7-methyl-7H-pyrrolo[2,3-d]pyrimidin-6-yl)ethynyl)-3-azabicyclo[3.1.0]hexan-3-yl)-4-(dimethylamino) but-2-en-1-one] | 10 to 1000 | 10 to 1000 | 10 to 1000 |  |
| C=CC(=O)N1CCC(N2CC(C#Cc3c(-c4ccc(Oc5ccccc5)cc4)c4c(N)ncnc4n3CCOC)C2)CC1 [II-189, 1-(4-(3-((4-amino-7-(2-methoxyethyl)-5-(4-phenoxyphenyl)-7H-pyrrolo[2,3-d]pyrimidin-6-yl)ethynyl)azetidin-1-yl)piperidin-1-yl)prop-2-en-1-one] | 10 to 1000 | 1000 to 10000 | 1000 to 10000 |  |
| C=CC(=O)N1CCC(N2CC(C#Cc3c(-c4cc(OC)c(Cl)c(OC)c4)c4c(N)ncnc4n3C)C2)CC1 [II-91] | 10 to 1000 |  | 10 to 1000 | 10 to 1000 |
| C=CS(=O)(=O)N1CC[C@@H](N2CC(C#Cc3c(-c4ccc(Oc5ccccc5)cc4)c4c(N)ncnc4n3C)C2)[C@@H](O)C1 [II-280] | ≤ 10 | 10 to 1000 | ≤ 10 |  |
| C=CC(=O)N1C[C@@H]2[C@@H](C#Cc3c(-c4ccc(Oc5cccc(C)n5)cc4OC)c4c(N)ncnc4n3C)[C@@H]2C1 [II-42] | 10 to 1000 |  | 10 to 1000 | 10 to 1000 |
| C=CC(=O)N1CC[C@H](N2CC(C#Cc3c(-c4ccc(F)c5c4OCO5)c4c(N)ncnc4n3C(C)C)C2)[C@H](F)C1 [II-286, 1-((3R,4S)-4-(3-((4-amino-5-(7-fluorobenzo[d][1,3]dioxol-4-yl)-7-isopropyl-7H-pyrrolo[2,3-d]pyrimidin-6-yl)ethynyl)azetidin-1-yl)-3-fluoropiperidin-1-yl)prop-2-en-1-one] | ≤ 10 | ≤ 10 | 10 to 1000 |  |

| Molecule | IC50 (SRC) [nM] | IC50 ([1]; 6 h) [nM] | IC50 (RBE cells) [nM] | IC50 [1] [nM] |
| --- | --- | --- | --- | --- |
| CCn1c(C#C[C@@H]2[C@H]3CN(C(=O)/C=C/CN(C)C)C[C@@H]23)c(-c2cccc3c2OCO3)c2c(N)ncnc21 [II-117] | ≤ 10 |  | ≤ 10 | ≤ 10 |
| C=CC(=O)N1C[C@@H]2[C@@H](C#Cc3c(-c4ccc(Oc5cccc(C)n5)cc4OC)c4c(N)ncnc4n3CCCO)[C@@H]2C1 [II-49] | 10 to 1000 |  | 10 to 1000 | 10 to 1000 |
| Cn1c(C#CC2CC3(C2)CN(C(=O)/C=C/CN2CCC2)C3)c(-c2ccc(Oc3ccccc3)cc2)c2c(N)ncnc21 [II-173, (E)-1-(6-((4-amino-7-methyl-5-(4-phenoxyphenyl)-7H-pyrrolo[2,3-d]pyrimidin-6-yl)ethynyl)-2-azaspiro[3.3]heptan-2-yl)-4-(azetidin-1-yl)but-2-en-1-one] | ≤ 10 | 10 to 1000 | ≤ 10 |  |
| C=CC(=O)N1CC[C@@H](N2CC(C#Cc3c(-c4ccc(C5CC5)c(OC)c4)c4c(N)ncnc4n3C)C2)[C@@H](O)C1 [II-67] | 10 to 1000 |  | 10 to 1000 | 10 to 1000 |
| C=CC(=O)N1CC[C@H](N2CC(C#Cc3c(-c4ccc(Oc5ccccc5)c(OC)c4)c4c(N)ncnc4n3C)C2)[C@H](O)C1 [II-247, 1-((3R,4S)-4-(3-((4-amino-5-(3-methoxy-4-phenoxyphenyl)-7-methyl-7H-pyrrolo[2,3-d]pyrimidin-6-yl)ethynyl)azetidin-1-yl)-3-hydroxypiperidin-1-yl)prop-2-en-1-one] | ≤ 10 | ≤ 10 | ≤ 10 |  |
| C=CC(=O)N1CC[C@@H](N2CC(C#Cc3c(-c4ccc(Oc5cccc(F)c5)cc4)c4c(N)ncnc4n3C)C2)[C@@H](O)C1 | 10 to 1000 |  | 10 to 1000 | 10 to 1000 |
| C=CC(=O)N1CCC(C#Cc2c(-c3ccc(Nc4ccccc4)cc3)c3c(N)ncnc3n2C(C)C)CC1 [Example I-7] | 10 to 1000 | ≤ 10 | 10 to 1000 |  |
| C=CC(=O)N1C[C@@H]2[C@@H](C#Cc3c(-c4ccc(Oc5cccc(C)n5)cc4OC)c4c(N)ncnc4n3CCOC)[C@@H]2C1 [II-276] | 10 to 1000 | 10 to 1000 | 10 to 1000 |  |
| 1-(4-(3-((4-amino-5-(3-ethoxy-4-phenoxyphenyl)-7-methyl-7H-pyrrolo[2,3-d]pyrimidin-6-yl)ethynyl)azetidin-1-yl)piperidin-1-yl)prop-2-en-1-one [II-36] | 10 to 1000 |  | 10 to 1000 | 10 to 1000 |
| C=CC(=O)N1CC[C@H](N2CC(C#Cc3c(-c4ccc(Cl)c(C)n4)c4c(N)ncnc4n3C(C)C)C2)[C@H](F)C1 [II-328] | 10 to 1000 |  | 10 to 1000 | 10 to 1000 |
| C=CC(=O)N1CCC(C#Cc2c(-c3ccc(Oc4ccccc4)cc3)c3c(N)ncnc3n2C(C)c2noc(C)n2)CC1 (stereo not drawn) [Example I-50] | 10 to 1000 | 10 to 1000 | 10 to 1000 |  |
| C=CC(=O)N1CC[C@@H](N2CC(C#Cc3c(-c4ccc(Cl)c(OC)n4)c4c(N)ncnc4n3C)C2)[C@@H](O)C1 [II-318] | 10 to 1000 |  | 10 to 1000 | 10 to 1000 |
| C=CC(=O)N1CCC(N2CC(C#Cc3c(-c4ccc(Oc5cccc(C)n5)c(OC)c4)c4c(N)nccc4n3C)C2)CC1 [II-80] | 1000 to 10000 |  | 10 to 1000 | 1000 to 10000 |
| C=CC(=O)N1CCC(N2CC(C#Cc3c(-c4ccc5c(c4)OCCN5C)c4c(N)ncnc4n3C)C2)CC1 [II-105] | 10 to 1000 |  | 10 to 1000 | 10 to 1000 |
| C=CC(=O)N1C[C@@H]2[C@@H](C#Cc3c(-c4ccc(Oc5cccc(C)n5)c(OC)c4)c4c(N)ncnc4n3C)[C@@H]2C1 [II-218, 1-((1R,5S,6s)-6-((4-amino-5-(3-methoxy-4-((6-methylpyridin-2-yl)oxy)phenyl)-7-methyl-7H-pyrrolo[2,3-d]pyrimidin-6-yl)ethynyl)-3-azabicyclo[3.1.0]hexan-3-yl)prop-2-en-1-one] | 10 to 1000 | 10 to 1000 | 10 to 1000 |  |
| C=CC(=O)N1CCC(C#Cc2c(-c3ccc(Oc4ccccc4)cc3)c3c(N)ncnc3n2C2CCN(C)C2=O)CC1 (stereo not drawn) [Example I-56] | 10 to 1000 | 10 to 1000 | 10 to 1000 |  |
| C=CC(=O)N1CCC(N2CC(C#Cc3c(-c4ccc(F)c5c4OCO5)c4c(N)ncnc4n3CC)C2)CC1 [II-290] | ≤ 10 | 10 to 1000 | 10 to 1000 |  |
